# Measurements as given in US11274083B2, “Substituted thiophenyl uracils, salts thereof and the use thereof as herbicidal agents” (Syngenta Crop Protection AG, priority 2017, dated 2022).
# Key:
# Type in all cases: in vivo
# Digitaria sanguinalis [1] = assay: Herbicidal action post-emergence, greenhouse pot test
# Avena fatua = assay: as above; conditions: application rate 80 g/ha
# Outline: (§1)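 Greenhouse; sandy loam; one-leaf stage; WP or EC formulation; 80 g/ha or lower; 0.5% additive; 600 L/ha; visual % kill at about 3 weeks relative to untreated.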
# Matricaria inodora [2] = assay: as above
# Outline: as §1
# Amaranthus retroflexus [3] = assay: as above
# Outline: as §1
# Polygonum convolvulus [4] = assay: as above
# Outline: as §1
# Abutilon theophrasti [5] = assay: as above
# Outline: as §1
# Lolium rigidum [6] = assay: as above; conditions: application rate 80 g/ha
# Outline: as §1
# Echinochloa crus-galli [7] = assay: as above
# Outline: as §1
# Viola tricolor [8] = assay: as above
# Outline: as §1
# Stellaria media [9] = assay: as above
# Outline: as §1
# Setaria viridis [10] = assay: as above
# Outline: as §1
# Veronica persica [11] = assay: as above
# Outline: as §1
# Pharbitis purpurea [12] = assay: as above
# Outline: as §1
# Alopecurus myosuroides [13] = assay: as above; conditions: scored visually after about 3 weeks vs untreated controls
# Outline: as §1
# Digitaria sanguinalis [14] = assay: Herbicidal action pre-emergence, greenhouse pot test
# Description: Seeds of mono- and dicotyledonous weeds and crop plants were laid out in plastic or organic plant pots and covered with soil. The compounds of the invention formulated in the form of wettable powders (WP) or as emulsion concentrates (EC) were then applied to the surface of the covering soil as an aqueous suspension or emulsion with addition of 0.5% additive at a water application rate equivalent to 600 L/ha. After the treatment, the pots were placed in a greenhouse and kept under good growth conditions for the test plants. After about 3 weeks, the efficacy of the preparations was scored visually as a percentage by comparison with untreated controls. For example, 100% efficacy=plants have died. 0% efficacy=like control plants.
# Amaranthus retroflexus [15] = assay: as above
# Outline: (§2)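 Application rates were 320 g/ha or lower, delivered pre-emergence as a soil-surface spray with 0.5% additive in 600 L/ha water. Plants grew in a greenhouse for about 3 weeks and were then rated visually against untreated controls, 100% being complete kill.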
# Polygonum convolvulus [16] = assay: as above
# Outline: as §2
# Hordeum murinum = assay: as above; conditions: application rate 320 g/ha
# Outline: as §2
# Abutilon theophrasti [17] = assay: as above
# Outline: as §2
# Lolium rigidum [18] = assay: as above; conditions: application rate 320 g/ha
# Outline: as §2
# Echinochloa crus-galli [19] = assay: as above
# Outline: as §2
# Viola tricolor [20] = assay: as above
# Outline: as §2
# Stellaria media [21] = assay: as above
# Outline: as §2
# Setaria viridis [22] = assay: as above
# Outline: as §2
# Veronica persica [23] = assay: as above
# Outline: as §2
# Pharbitis purpurea [24] = assay: as above
# Outline: as §2
# Alopecurus myosuroides [25] = assay: as above
# Outline: as §2
# Matricaria inodora [26] = assay: as above
# Triticum aestivum = assay: Crop compatibility post-emergence, greenhouse pot test
# Outline: (§3)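 Greenhouse post-emergence spray at one-leaf stage, 600 L/ha with 0.5% additive. Injury was assessed visually after about 3 weeks as % of untreated control.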
# Zea mays = assay: as above; conditions: application rate 20 g/ha
# Outline: as §3
# Oryza sativa = assay: as above; conditions: application rate 20 g/ha
# Outline: as §3
# Lolium multiflorum [27] = assay: Herbicidal action post-emergence, greenhouse pot test; conditions: application rate 80 g/ha
# Outline: as §1
# Cyperus esculentus = assay: Herbicidal action pre-emergence, greenhouse pot test; conditions: application rate 320 g/ha
# Outline: as §2
# Lolium multiflorum [28] = assay: as above; conditions: application rate 80 g/ha, scored visually after about 3 weeks vs untreated controls
# Outline: as §2
smiles,measurement,setting,value
COC(=O)C(C)(C)COC(=O)C(C)Sc1cc(-n2c(=O)cc(C(F)(F)F)n(C)c2=O)c(F)cc1Cl (centres unmarked) [I.1-32],Digitaria sanguinalis (Efficacy in %),Digitaria sanguinalis [1]; application rate 80 g/ha,100%
same,Avena fatua (Efficacy in %),Avena fatua,80%
same,Matricaria inodora (Efficacy in %),Matricaria inodora [2]; application rate 80 g/ha,100%
same,Amaranthus retroflexus (Efficacy in %),Amaranthus retroflexus [3]; application rate 80 g/ha,100%
same,Polygonum convolvulus (Efficacy in %),Polygonum convolvulus [4]; application rate 80 g/ha,100%
same,Abutilon theophrasti (Efficacy in %),Abutilon theophrasti [5]; application rate 80 g/ha,100%
same,Lolium rigidum (Efficacy in %),Lolium rigidum [6],100%
same,Echinochloa crus-galli (Efficacy in %),Echinochloa crus-galli [7]; application rate 80 g/ha,100%
same,Viola tricolor (Efficacy in %),Viola tricolor [8]; application rate 80 g/ha,100%
same,Stellaria media (Efficacy in %),Stellaria media [9]; application rate 80 g/ha,100%
same,Setaria viridis (Efficacy in %),Setaria viridis [10]; application rate 80 g/ha,100%
same,Veronica persica (Efficacy in %),Veronica persica [11]; application rate 80 g/ha,100%
same,Pharbitis purpurea (Efficacy in %),Pharbitis purpurea [12]; application rate 80 g/ha,100%
same,Alopecurus myosuroides (Efficacy in %),Alopecurus myosuroides [13]; application rate 80 g/ha,80%
same,Digitaria sanguinalis (Efficacy in %),Digitaria sanguinalis [14]; application rate 320 g/ha,100%
same,Amaranthus retroflexus (Efficacy in %),Amaranthus retroflexus [15]; application rate 320 g/ha,100%
same,Polygonum convolvulus (Efficacy in %),Polygonum convolvulus [16]; application rate 320 g/ha,100%
same,Hordeum murinum (Efficacy in %),Hordeum murinum,90%
same,Abutilon theophrasti (Efficacy in %),Abutilon theophrasti [17]; application rate 320 g/ha,100%
same,Lolium rigidum (Efficacy in %),Lolium rigidum [18],90%
same,Echinochloa crus-galli (Efficacy in %),Echinochloa crus-galli [19]; application rate 320 g/ha,100%
same,Viola tricolor (Efficacy in %),Viola tricolor [20]; application rate 320 g/ha,100%
same,Stellaria media (Efficacy in %),Stellaria media [21]; application rate 320 g/ha,100%
same,Setaria viridis (Efficacy in %),Setaria viridis [22]; application rate 320 g/ha,100%
same,Veronica persica (Efficacy in %),Veronica persica [23]; application rate 320 g/ha,100%
same,Pharbitis purpurea (Efficacy in %),Pharbitis purpurea [24]; application rate 320 g/ha,100%
same,Alopecurus myosuroides (Efficacy in %),Alopecurus myosuroides [25]; application rate 320 g/ha,90%
same,Matricaria inodora (Efficacy in %),Matricaria inodora [26]; application rate 320 g/ha,100%
same,Triticum aestivum (Efficacy in %),Triticum aestivum; application rate 5 g/ha,20%
same,Zea mays (Efficacy in %),Zea mays,20%
same,Oryza sativa (Efficacy in %),Oryza sativa,20%
CCOC(=O)CCOC(=O)C(C)Sc1cc(-n2c(=O)cc(C(F)(F)F)n(C)c2=O)c(F)cc1Cl (centres unmarked) [I.1-3],Avena fatua (Efficacy in %),Avena fatua,80%
same,Matricaria inodora (Efficacy in %),Matricaria inodora [2]; application rate 80 g/ha,100%
same,Amaranthus retroflexus (Efficacy in %),Amaranthus retroflexus [3]; application rate 80 g/ha,100%
same,Polygonum convolvulus (Efficacy in %),Polygonum convolvulus [4]; application rate 80 g/ha,100%
same,Abutilon theophrasti (Efficacy in %),Abutilon theophrasti [5]; application rate 80 g/ha,100%
same,Echinochloa crus-galli (Efficacy in %),Echinochloa crus-galli [7]; application rate 80 g/ha,100%
same,Viola tricolor (Efficacy in %),Viola tricolor [8]; application rate 80 g/ha,100%
same,Stellaria media (Efficacy in %),Stellaria media [9]; application rate 80 g/ha,100%
same,Setaria viridis (Efficacy in %),Setaria viridis [10]; application rate 80 g/ha,100%
same,Veronica persica (Efficacy in %),Veronica persica [11]; application rate 80 g/ha,100%
same,Pharbitis purpurea (Efficacy in %),Pharbitis purpurea [12]; application rate 80 g/ha,100%
same,Alopecurus myosuroides (Efficacy in %),Alopecurus myosuroides [13]; application rate 80 g/ha,100%
same,Lolium multiflorum (Efficacy in %),Lolium multiflorum [27],100%
same,Amaranthus retroflexus (Efficacy in %),Amaranthus retroflexus [15]; application rate 80 g/ha,100%
same,Polygonum convolvulus (Efficacy in %),Polygonum convolvulus [16]; application rate 320 g/ha,100%
same,Abutilon theophrasti (Efficacy in %),Abutilon theophrasti [17]; application rate 320 g/ha,100%
same,Echinochloa crus-galli (Efficacy in %),Echinochloa crus-galli [19]; application rate 320 g/ha,100%
same,Viola tricolor (Efficacy in %),Viola tricolor [20]; application rate 320 g/ha,100%
same,Stellaria media (Efficacy in %),Stellaria media [21]; application rate 320 g/ha,100%
same,Setaria viridis (Efficacy in %),Setaria viridis [22]; application rate 320 g/ha,100%
same,Cyperus esculentus (Efficacy in %),Cyperus esculentus,100%
same,Veronica persica (Efficacy in %),Veronica persica [23]; application rate 320 g/ha,100%
same,Pharbitis purpurea (Efficacy in %),Pharbitis purpurea [24]; application rate 320 g/ha,100%
same,Alopecurus myosuroides (Efficacy in %),Alopecurus myosuroides [25]; application rate 80 g/ha,90%
same,Lolium multiflorum (Efficacy in %),Lolium multiflorum [28],100%
same,Matricaria inodora (Efficacy in %),Matricaria inodora [26]; application rate 320 g/ha,100%
same,Triticum aestivum (Efficacy in %),Triticum aestivum; application rate 20 g/ha,10%
same,Oryza sativa (Efficacy in %),Oryza sativa,20%
CC(Sc1cc(-n2c(=O)cc(C(F)(F)F)n(C)c2=O)c(F)cc1Cl)C(=O)OC1C(=O)OCC1(C)C (centres unmarked) [I.1-142],Digitaria sanguinalis (Efficacy in %),Digitaria sanguinalis [1]; application rate 20 g/ha,100%
same,Matricaria inodora (Efficacy in %),Matricaria inodora [2]; application rate 20 g/ha,100%
same,Amaranthus retroflexus (Efficacy in %),Amaranthus retroflexus [3]; application rate 20 g/ha,100%
same,Polygonum convolvulus (Efficacy in %),Polygonum convolvulus [4]; application rate 20 g/ha,100%
same,Abutilon theophrasti (Efficacy in %),Abutilon theophrasti [5]; application rate 20 g/ha,100%
same,Echinochloa crus-galli (Efficacy in %),Echinochloa crus-galli [7]; application rate 20 g/ha,100%
same,Viola tricolor (Efficacy in %),Viola tricolor [8]; application rate 20 g/ha,100%
same,Stellaria media (Efficacy in %),Stellaria media [9]; application rate 20 g/ha,100%
same,Setaria viridis (Efficacy in %),Setaria viridis [10]; application rate 20 g/ha,100%
same,Veronica persica (Efficacy in %),Veronica persica [11]; application rate 20 g/ha,100%
same,Pharbitis purpurea (Efficacy in %),Pharbitis purpurea [12]; application rate 20 g/ha,100%
same,Alopecurus myosuroides (Efficacy in %),Alopecurus myosuroides [13]; application rate 20 g/ha,80%
same,Digitaria sanguinalis (Efficacy in %),Digitaria sanguinalis [14]; application rate 80 g/ha,100%
same,Amaranthus retroflexus (Efficacy in %),Amaranthus retroflexus [15]; application rate 80 g/ha,100%
same,Polygonum convolvulus (Efficacy in %),Polygonum convolvulus [16]; application rate 80 g/ha,100%
same,Abutilon theophrasti (Efficacy in %),Abutilon theophrasti [17]; application rate 80 g/ha,100%
same,Echinochloa crus-galli (Efficacy in %),Echinochloa crus-galli [19]; application rate 80 g/ha,90%
same,Viola tricolor (Efficacy in %),Viola tricolor [20]; application rate 80 g/ha,100%
same,Stellaria media (Efficacy in %),Stellaria media [21]; application rate 80 g/ha,100%
same,Setaria viridis (Efficacy in %),Setaria viridis [22]; application rate 80 g/ha,100%
same,Veronica persica (Efficacy in %),Veronica persica [23]; application rate 80 g/ha,100%
same,Pharbitis purpurea (Efficacy in %),Pharbitis purpurea [24]; application rate 80 g/ha,90%
same,Matricaria inodora (Efficacy in %),Matricaria inodora [26]; application rate 80 g/ha,100%
same,Triticum aestivum (Efficacy in %),Triticum aestivum; application rate 20 g/ha,20%
